Source: patent US9862721B2, “Tetrahydrocarboline derivative” (ONO PHARMACEUTICAL CO., LTD., priority 2011, dated 2018)

target: human ENPP2 (Homo sapiens (Human), UniProt Q13822); assay: Measurement of human ENPP2 inhibitory activity; format: biochemical; details: human ENPP2, 16:0-LPC substrate, read-out: ENPP2 inhibitory activity rate (%)
Method: 10 μL of a test compound solution (10% dimethyl sulfoxide) at each concentration and 40 μL of a 5 μg/mL human ENPP2 solution (buffer A: 100 mmol/L Tris-HCl (pH 9.0), 500 mmol/L NaCl, 5 mmol/L MgCl2, 0.05% Triton X-100) were mixed, 50 μL of a 2 mmol/L 16:0-lysophosphatidylcholine (LPC) solution (buffer A) was further added to react at 37° C. for 24 hours. Subsequently, to 10 μL of the reaction solution was added 90 μL of a measurement buffer (0.5 mmol/L aminoantipyrine, 0.3 mmol/L N-ethyl-N-(2-hydroxy-3-sulfopropyl)-3-methylaniline, 1 U/mL peroxidase, 3 U/mL choline oxidase, 100 mmol/L Tris-HCl (pH 8.5), 5 mmol/L CaCl2) to react at 37° C. for 20 minutes, and spectrophotometric determination was performed at 555 nm.
Using a standard curve, a choline production amount (enzyme activity) in each test compound was calculated, and the inhibitory activity rate of each test compound was calculated, wherein the enzyme activity in a positive control to which a test compound is not added, was a 0% inhibition rate, and the enzyme activity in a negative control to which a test compound and human ENPP2 are not added, were 100% inhibition. Further, concerning the present compounds shown in Table 3, an IC50 value was calculated from inhibitory activity rate at each concentration.

| inhibition at 1 µM [%] | SMILES |
| --- | --- |
| 99.5 | CC1(C(=O)O)CCN(CC(=O)N2CCc3c(n(Cc4ccc(C(F)(F)F)s4)c4ncccc34)C2)CC1 [Example 7(39), 4-methyl-1-[2-oxo-2-(9-{[5-(trifluoromethyl)-2-thienyl]methyl}-5,6,8,9-tetrahydro-7H-pyrido[4′,3′:4,5]pyrrolo[2,3-b]pyridin-7-yl)ethyl]-4-piperidinecarboxylic acid] |
| 99.3 | CCc1cccc(Cn2c3c(c4cccnc42)CCN(C(=O)CC24CCC(C(=O)O)(CC2)C4)C3)c1 [Example 6(72), 4-{2-[9-(3-ethylbenzyl)-5,6,8,9-tetrahydro-7H-pyrido[4′,3′:4,5]pyrrolo[2,3-b]pyridin-7-yl]-2-oxoethyl}bicyclo[2.2.1]heptane-1-carboxylic acid] |
| 99 | O=C(C[C@H]1CC[C@H](C(=O)O)CC1)N1CCc2c(n(Cc3ccc(C(F)(F)F)s3)c3ncccc23)C1 [Example 6(16), trans-4-[2-oxo-2-(9-{[5-(trifluoromethyl)-2-thienyl]methyl}-5,6,8,9-tetrahydro-7H-pyrido[4′,3′:4,5]pyrrolo[2,3-b]pyridin-7-yl)ethyl]cyclohexanecarboxylic acid] |
| 97.4 | C[C@]1(C(=O)O)CC[C@H](CC(=O)N2CCc3c(n(Cc4cnc(C(F)(F)F)s4)c4ncccc34)C2)CC1 [Example 10(5), trans-1-methyl-4-[2-oxo-2-(9-{[2-(trifluoromethyl)-1,3-thiazol-5-yl]methyl}-5,6,8,9-tetrahydro-7H-pyrido[4′,3′:4,5]pyrrolo[2,3-b]pyridin-7-yl)ethyl]cyclohexanecarboxylic acid] |
| 99.2 | O=C(CC12CCC(C(=O)O)(CC1)C2)N1CCc2c(n(Cc3ccc(C(F)(F)F)cc3)c3ncccc23)C1 [Example 6(68), 4-(2-oxo-2-{9-[4-(trifluoromethyl)benzyl]-5,6,8,9-tetrahydro-7H-pyrido[4′,3′:4,5]pyrrolo[2,3-b]pyridin-7-yl}ethyl)bicyclo[2.2.1]heptane-1-carboxylic acid] |
| 99.2 | O=C(C[C@H]1CC[C@H](C(=O)O)CC1)N1CCc2c(n(Cc3csc(C(F)(F)F)c3)c3ncccc23)C1 [Example 6(13), trans-4-[2-oxo-2-(9-{[5-(trifluoromethyl)-3-thienyl]methyl}-5,6,8,9-tetrahydro-7H-pyrido[4′,3′:4,5]pyrrolo[2,3-b]pyridin-7-yl)ethyl]cyclohexanecarboxylic acid] |
| 99.1 | CC1(C)[C@@H](CC(=O)N2CCc3c(n(Cc4cnc(C(F)(F)F)s4)c4ccccc34)C2)CC[C@@]1(C)C(=O)O [Example 6(49), (1R,3R)-1,2,2-trimethyl-3-[2-oxo-2-(9-{[2-(trifluoromethyl)-1,3-thiazol-5-yl]methyl}-1,3,4,9-tetrahydro-2H-beta-carbolin-2-yl)ethyl]cyclopentanecarboxylic acid] |

tested on: Crl:CD (Sprague-Dawley) male rat; assay: Measurement of blood pressure and heart rate in rat under wakefulness; format: in vivo; details: conscious rat, forced oral administration, 100, 300 mg/kg, up to 180 minutes
Method: A Cr1:CD (Sparague-Dawley) male rat (Charles River Laboratories Japan, Inc., 8 weeks old) was anesthetized by inhalation of isoflurane. A catheter (INTRAMEDIC POLYETHYLENE Tubing PE50, CLAY ADAMS) was inserted and indwelled in a femoral artery and another end was exposed from dorsal skin. The rat was placed in a rearing cage for blood pressure measurement. After elapse of 2 hours or more from the insertion of the catheter, each of the compound of Reference Example 2 and the compound of Example 6(72) (dose: 100, 300 mg/kg) was forcedly orally administered, and blood pressure was measured under no anesthesia and no restraint. The blood pressure was measured by connecting the catheter inserted in the femoral artery and a blood pressure transducer (DX-360, Nihon Kohden Corporation) and passing through an amplifier for blood pressure measurement (Coupler.Amplifier PP-101H.AP-101H, Nihon Kohden Corporation). Blood pressure signals were captured into a data acquisition analysis system (HEM 3.5, NOTOCORD SYSTEM S.A.) through a polygraph system (PEG-1000, Nihon Kohden Corporation) to measure blood pressure (systolic pressure, diastolic pressure, mean blood pressure) and heart rate (measured from blood pressure pulse wave). […] The data were accumulated as measured values at respective time points and % variation values in which each value before administration was taken as 100.

| SMILES | influence on a circulatory organ (blood pressure, heart rate) |
| --- | --- |
| O=C(C[C@H]1CC[C@H](C(=O)O)CC1)N1CCc2c(n(Cc3ccc(F)cc3F)c3ncccc23)C1 [Reference Example 2, trans-4-{2-[9-(2,4-difluorobenzyl)-5,6,8,9-tetrahydro-7H-pyrido[4′,3′:4,5]pyrrolo[2,3-b]pyridin-7-yl}-2-oxoethyl}cyclohexanecarboxylic acid, reference compound] | An influence of the compound of Reference Example 2 on a circulatory organ was observed |
| CCc1cccc(Cn2c3c(c4cccnc42)CCN(C(=O)CC24CCC(C(=O)O)(CC2)C4)C3)c1 [Example 6(72), 4-{2-[9-(3-ethylbenzyl)-5,6,8,9-tetrahydro-7H-pyrido[4′,3′:4,5]pyrrolo[2,3-b]pyridin-7-yl]-2-oxoethyl}bicyclo[2.2.1]heptane-1-carboxylic acid] | no influence |
